{"source": "paper PMC3889329", "about": "(Diabetes Therapy, 2013)", "origin": "cited, not measured here", "tested_on": "healthy subjects", "details": "cited from earlier work", "data": [{"molecule": "Cc1ccc([C@@H]2O[C@H](CO)[C@@H](O)[C@H](O)[C@H]2O)cc1Cc1ccc(-c2ccc(F)cc2)s1", "note": "[Canagliflozin]", "values": [{"measurement": "Maximal UGE", "setting": "200–800 mg qd, healthy subjects", "value": 70, "unit": "g/day"}]}, {"molecule": "OC[C@H]1O[C@@H](c2ccc(F)c(Cc3cc4ccccc4s3)c2)[C@H](O)[C@@H](O)[C@@H]1O", "note": "[Ipragliflozin]", "values": [{"measurement": "Maximum UGE", "setting": "multiple doses of 5–600 mg, healthy volunteers", "value": "approximately 59 g/day"}]}]}
